Test results from paper PMC5218480 (PLoS ONE, 2017).

Tested on: MV-4-11 cells
Assay: Gene expression microarray analysis (Affymetrix PrimeView) and GSEA
Assay type: cell-based, human
Parameters: RFU PODN (11730768_x_at) / Fold change /veh PODN (11730768_x_at) / RFU LINC00158 (11744669_a_at) / Fold change /veh LINC00158 (11744669_a_at) / RFU DUSP10 (11751237_a_at) / Fold change /veh DUSP10 (11751237_a_at) / RFU ID3 (11757404_x_at) / Fold change /veh ID3 (11757404_x_at) / RFU PLEKHG5 (11737974_s_at) / Fold change /veh PLEKHG5 (11737974_s_at) / RFU LRRC4B (11730491_at) / Fold change /veh LRRC4B (11730491_at) / RFU GIMAP4 (11747438_a_at) / Fold change /veh GIMAP4 (11747438_a_at) / RFU KRT8 (11758183_x_at) / Fold change /veh KRT8 (11758183_x_at) / RFU CNN1 (11734310_a_at) / Fold change /veh CNN1 (11734310_a_at) / RFU VPS37D (11726825_at) / Fold change /veh VPS37D (11726825_at) / RFU C10orf10 (11716522_x_at) / Fold change /veh C10orf10 (11716522_x_at) / RFU KIR2DL2 /// KIR2DL4 /// KIR2DL5A /// KIR2DL5B /// KIR2DS1 /// KIR2DS2 /// KIR2DS3 /// KIR2DS4 /// KIR3DL3 /// KIR3DL3 /// KIR3DS1 (11738374_at) / Fold change /veh KIR2DL2 /// KIR2DL4 /// KIR2DL5A /// KIR2DL5B /// KIR2DS1 /// KIR2DS2 /// KIR2DS3 /// KIR2DS4 /// KIR3DL3 /// KIR3DL3 /// KIR3DS1 (11738374_at) / RFU C1QL1 (11718748_at) / Fold change /veh C1QL1 (11718748_at) / RFU TMPRSS4 (11747572_a_at) / Fold change /veh TMPRSS4 (11747572_a_at) / RFU HAMP (11756126_x_at) / Fold change /veh HAMP (11756126_x_at) / RFU RNFT2 (11725882_a_at) / Fold change /veh RNFT2 (11725882_a_at) / RFU NR4A2 (11747474_a_at) / Fold change /veh NR4A2 (11747474_a_at) / RFU ABCC12 (11746883_a_at) / Fold change /veh ABCC12 (11746883_a_at) / RFU TMEM136 (11760407_x_at) / Fold change /veh TMEM136 (11760407_x_at) / RFU CLDN22 /// WWC2 (11732394_at) / Fold change /veh CLDN22 /// WWC2 (11732394_at) / RFU HLA-DPB1 (11760878_x_at) / Fold change /veh HLA-DPB1 (11760878_x_at) / RFU SPINT1 (11716480_a_at) / Fold change /veh SPINT1 (11716480_a_at) / RFU GAP43 (11754022_s_at) / Fold change /veh GAP43 (11754022_s_at) / RFU A4GNT (11735810_at) / Fold change /veh A4GNT (11735810_at) / RFU PRB3 (11715151_x_at) / Fold change /veh PRB3 (11715151_x_at) / RFU TUBB4B (11761932_at) / Fold change /veh TUBB4B (11761932_at) / RFU CAPN14 (11732068_a_at) / Fold change /veh CAPN14 (11732068_a_at) / RFU TMCC2 (11721928_a_at) / Fold change /veh TMCC2 (11721928_a_at) / RFU IRGQ (11745062_a_at) / Fold change /veh IRGQ (11745062_a_at) / RFU FAM174B (11720279_a_at) / Fold change /veh FAM174B (11720279_a_at) / RFU TMPRSS4 (11748680_a_at) / Fold change /veh TMPRSS4 (11748680_a_at) / RFU FAM212B (11763350_a_at) / Fold change /veh FAM212B (11763350_a_at) / RFU PLEKHG5 (11743358_a_at) / Fold change /veh PLEKHG5 (11743358_a_at) / RFU ZSCAN30 (11745921_a_at) / Fold change /veh ZSCAN30 (11745921_a_at) / RFU CMKLR1 (11741424_a_at) / Fold change /veh CMKLR1 (11741424_a_at) / RFU LOC101060620 /// MAPK8IP1 (11723275_at) / Fold change /veh LOC101060620 /// MAPK8IP1 (11723275_at) / RFU SPTSSB (11747773_x_at) / Fold change /veh SPTSSB (11747773_x_at) / RFU PRSS12 (11739890_at) / Fold change /veh PRSS12 (11739890_at) / RFU BIN1 (11741810_x_at) / Fold change /veh BIN1 (11741810_x_at) / RFU WNT11 (11732464_a_at) / Fold change /veh WNT11 (11732464_a_at) / RFU C10orf10 (11716521_a_at) / Fold change /veh C10orf10 (11716521_a_at) / RFU C5orf56 (11738089_at) / Fold change /veh C5orf56 (11738089_at) / RFU CYB561 (11721691_x_at) / Fold change /veh CYB561 (11721691_x_at) / RFU ANKRD19P (11752326_a_at) / Fold change /veh ANKRD19P (11752326_a_at) / RFU OR2T12 /// OR2T33 /// OR2T8 (11738714_s_at) / Fold change /veh OR2T12 /// OR2T33 /// OR2T8 (11738714_s_at) / RFU VCAN (11748164_a_at) / Fold change /veh VCAN (11748164_a_at) / RFU JSRP1 (11732532_at) / Fold change /veh JSRP1 (11732532_at) / RFU KRTAP10-11 (11738290_x_at) / Fold change /veh KRTAP10-11 (11738290_x_at) / RFU MYO3A (11730013_a_at) / Fold change /veh MYO3A (11730013_a_at) / RFU EBF3 (11725865_a_at) / Fold change /veh EBF3 (11725865_a_at) / RFU CAMK2N1 (11719241_x_at) / Fold change /veh CAMK2N1 (11719241_x_at) / RFU C5orf56 (11738088_a_at) / Fold change /veh C5orf56 (11738088_a_at) / RFU OLFML3 (11715873_a_at) / Fold change /veh OLFML3 (11715873_a_at) / RFU LOC100653217 /// NTM (11731650_a_at) / Fold change /veh LOC100653217 /// NTM (11731650_a_at) / RFU MAPK11 (11762145_a_at) / Fold change /veh MAPK11 (11762145_a_at) / RFU FIZ1 (11724087_x_at) / Fold change /veh FIZ1 (11724087_x_at) / RFU OASL (11726364_x_at) / Fold change /veh OASL (11726364_x_at) / RFU SOX15 (11748057_x_at) / Fold change /veh SOX15 (11748057_x_at) / RFU CD79A (11719716_a_at) / Fold change /veh CD79A (11719716_a_at) / RFU HIST1H1D (11736915_at) / Fold change /veh HIST1H1D (11736915_at) / RFU CASKIN2 (11723855_a_at) / Fold change /veh CASKIN2 (11723855_a_at) / RFU LOC730098 (11760151_x_at) / Fold change /veh LOC730098 (11760151_x_at) / RFU OR4N2 (11742367_at) / Fold change /veh OR4N2 (11742367_at) / RFU PRRT2 (11749266_a_at) / Fold change /veh PRRT2 (11749266_a_at) / RFU SNX32 (11753110_a_at) / Fold change /veh SNX32 (11753110_a_at) / RFU CDHR5 (11726645_a_at) / Fold change /veh CDHR5 (11726645_a_at) / RFU RCAN1 (11760418_a_at) / Fold change /veh RCAN1 (11760418_a_at) / RFU FAM167A (11723789_a_at) / Fold change /veh FAM167A (11723789_a_at) / RFU FAM26E (11764081_at) / Fold change /veh FAM26E (11764081_at) / RFU ISYNA1 (11749810_s_at) / Fold change /veh ISYNA1 (11749810_s_at) / RFU ACY1 (11761880_at) / Fold change /veh ACY1 (11761880_at) / RFU 11764098_at / Fold change /veh 11764098_at / RFU SAMD14 (11745864_x_at) / Fold change /veh SAMD14 (11745864_x_at) / RFU NPB (11741838_a_at) / Fold change /veh NPB (11741838_a_at) / RFU TMPRSS6 (11731388_a_at) / Fold change /veh TMPRSS6 (11731388_a_at) / RFU KRTAP10-2 (11738614_at) / Fold change /veh KRTAP10-2 (11738614_at) / RFU ARHGAP8 /// PRR5-ARHGAP8 (11727945_x_at) / Fold change /veh ARHGAP8 /// PRR5-ARHGAP8 (11727945_x_at) / RFU KRTAP5-7 /// NADSYN1 (11734609_at) / Fold change /veh KRTAP5-7 /// NADSYN1 (11734609_at) / RFU RASL12 (11751679_a_at) / Fold change /veh RASL12 (11751679_a_at) / RFU CDKN2B (11736163_a_at) / Fold change /veh CDKN2B (11736163_a_at) / RFU PRF1 (11729649_at) / Fold change /veh PRF1 (11729649_at) / RFU, ZNF638 /// ZNF638-IT1 / Fold change vs veh, ZNF638 /// ZNF638-IT1 / RFU, PANK3 / Fold change vs veh, PANK3 / RFU, SH3YL1 / Fold change vs veh, SH3YL1 / RFU, ZEB2 / Fold change vs veh, ZEB2 / RFU, NRIP1 / Fold change vs veh, NRIP1 / RFU, PTTG1IP / Fold change vs veh, PTTG1IP / RFU, CAPN2 / Fold change vs veh, CAPN2 / RFU, MED14 / Fold change vs veh, MED14 / RFU, SNORA58 / Fold change vs veh, SNORA58 / RFU, C1orf63 / Fold change vs veh, C1orf63 / RFU, LRRFIP1 / Fold change vs veh, LRRFIP1 / RFU, NDUFAF7 / Fold change vs veh, NDUFAF7 / RFU, SLC12A2 / Fold change vs veh, SLC12A2 / RFU, IBTK / Fold change vs veh, IBTK / RFU, ESF1 / Fold change vs veh, ESF1 / Fold change vs veh, TMEM50B / RFU, TAOK1 / Fold change vs veh, TAOK1 / RFU, ACBD3 / Fold change vs veh, ACBD3 / RFU, TMA16 / Fold change vs veh, TMA16 / RFU, RWDD3 / Fold change vs veh, RWDD3 / RFU, BCAT1 / Fold change vs veh, BCAT1 / RFU, EDEM3 / Fold change vs veh, EDEM3 / RFU, TMEM33 / Fold change vs veh, TMEM33 / RFU, WDR75 / Fold change vs veh, WDR75 / RFU, AHCTF1 / Fold change vs veh, AHCTF1 / RFU, TFRC / Fold change vs veh, TFRC / RFU, ZDHHC17 / Fold change vs veh, ZDHHC17 / RFU, NOM1 / Fold change vs veh, NOM1 / RFU, ARL8B / Fold change vs veh, ARL8B / RFU, ZBTB11 / Fold change vs veh, ZBTB11 / RFU, TAMM41 / Fold change vs veh, TAMM41 / RFU, KIAA1704 /// LOC100996395 / Fold change vs veh, KIAA1704 /// LOC100996395 / RFU, ING1 / Fold change vs veh, ING1 / RFU, TRMT61B / Fold change vs veh, TRMT61B / RFU, FUBP3 / Fold change vs veh, FUBP3 / RFU, TP53 / Fold change vs veh, TP53 / RFU, TNKS2 / Fold change vs veh, TNKS2 / RFU, ZFP14 / Fold change vs veh, ZFP14 / RFU, ACTR2 / Fold change vs veh, ACTR2 / RFU, PPP3R1 / Fold change vs veh, PPP3R1 / RFU, PIK3R1 / Fold change vs veh, PIK3R1 / RFU, HNRNPA1 / Fold change vs veh, HNRNPA1 / RFU, RNF170 / Fold change vs veh, RNF170 / RFU, ZNF28 / Fold change vs veh, ZNF28 / RFU, RNGTT / Fold change vs veh, RNGTT / RFU, OGT / Fold change vs veh, OGT / RFU, BRD1 / Fold change vs veh, BRD1 / RFU, MARS / Fold change vs veh, MARS / RFU, ZNF655 / Fold change vs veh, ZNF655 / RFU, FAHD1 / Fold change vs veh, FAHD1 / RFU, BDP1 / Fold change vs veh, BDP1 / RFU, LRRCC1 / Fold change vs veh, LRRCC1 / RFU, ARID1A / Fold change vs veh, ARID1A / RFU, ZNF146 / Fold change vs veh, ZNF146 / RFU, ZNF330 / Fold change vs veh, ZNF330 / RFU, GPN3 / Fold change vs veh, GPN3 / RFU, C9orf123 / Fold change vs veh, C9orf123 / RFU, N4BP2L2 / Fold change vs veh, N4BP2L2 / RFU, ARFIP1 / Fold change vs veh, ARFIP1 / RFU, FAM179B / Fold change vs veh, FAM179B / RFU, BCL10 / Fold change vs veh, BCL10 / RFU, UHRF1BP1L / Fold change vs veh, UHRF1BP1L / RFU, BET1 / Fold change vs veh, BET1 / RFU, CNOT2 / Fold change vs veh, CNOT2 / RFU, ZNF268 / Fold change vs veh, ZNF268 / Fold change vs veh, ZNF507 / RFU, DGCR2 / Fold change vs veh, DGCR2 / RFU, WDSUB1 / Fold change vs veh, WDSUB1 / Fold change vs veh, HSP90B1 /// MIR3652 / RFU, ADSS / Fold change vs veh, ADSS / RFU, GK / Fold change vs veh, GK / RFU, ZNF148 / Fold change vs veh, ZNF148 / RFU, TAF9 / Fold change vs veh, TAF9 / RFU, SLC1A5 / Fold change vs veh, SLC1A5 / RFU, SLMO2 / Fold change vs veh, SLMO2 / RFU, ABCC4 / Fold change vs veh, ABCC4 / RFU, LOC101060439 /// RAP1B / Fold change vs veh, LOC101060439 /// RAP1B / RFU, RFX7 / Fold change vs veh, RFX7 / RFU, GTPBP10 / Fold change vs veh, GTPBP10 / RFU, CNEP1R1 / Fold change vs veh, CNEP1R1 / RFU, BIVM-ERCC5 /// ERCC5 / Fold change vs veh, BIVM-ERCC5 /// ERCC5 / RFU, ILF3 / Fold change vs veh, ILF3 / RFU 11762660_at / Fold change /veh 11762660_at / RFU VCAN (11757783_s_at) / Fold change /veh VCAN (11757783_s_at) / RFU DDX43 (11728927_at) / Fold change /veh DDX43 (11728927_at) / RFU KRT8 (11758188_x_at) / Fold change /veh KRT8 (11758188_x_at) / RFU NKD1 (11759106_at) / Fold change /veh NKD1 (11759106_at) / RFU SRD5A1 (11742802_a_at) / Fold change /veh SRD5A1 (11742802_a_at) / RFU TPSAB1 /// TPSB2 (11721975_s_at) / Fold change /veh TPSAB1 /// TPSB2 (11721975_s_at) / RFU GSTM3 (11746129_a_at) / Fold change /veh GSTM3 (11746129_a_at) / RFU IL23R (11737362_x_at) / Fold change /veh IL23R (11737362_x_at) / RFU TMEM51 (11727254_a_at) / Fold change /veh TMEM51 (11727254_a_at) / RFU PIWIL2 (11732686_x_at) / Fold change /veh PIWIL2 (11732686_x_at) / RFU ORM1 (11744905_x_at) / Fold change /veh ORM1 (11744905_x_at) / RFU CCDC152 (11743942_at) / Fold change /veh CCDC152 (11743942_at) / RFU ECM1 (11717891_a_at) / Fold change /veh ECM1 (11717891_a_at) / RFU IL23R (11748794_a_at) / Fold change /veh IL23R (11748794_a_at) / RFU TNFAIP8L3 (11732012_x_at) / Fold change /veh TNFAIP8L3 (11732012_x_at) / RFU MBOAT4 (11741988_at) / Fold change /veh MBOAT4 (11741988_at) / RFU 11764193_at / Fold change /veh 11764193_at / RFU TMEM53 (11763286_at) / Fold change /veh TMEM53 (11763286_at) / RFU MAGEB2 (11727129_at) / Fold change /veh MAGEB2 (11727129_at) / RFU TMEM200A (11744735_a_at) / Fold change /veh TMEM200A (11744735_a_at) / RFU CCDC152 (11751479_a_at) / Fold change /veh CCDC152 (11751479_a_at) / RFU FAM211A (11726209_a_at) / Fold change /veh FAM211A (11726209_a_at) / RFU RGS16 (11746705_a_at) / Fold change /veh RGS16 (11746705_a_at) / RFU VCAN (11755009_s_at) / Fold change /veh VCAN (11755009_s_at) / RFU RHOB (11743442_s_at) / Fold change /veh RHOB (11743442_s_at) / RFU RGS16 (11720943_a_at) / Fold change /veh RGS16 (11720943_a_at) / RFU RGS16 (11720944_at) / Fold change /veh RGS16 (11720944_at) / RFU, VPS4B / Fold change vs veh, VPS4B / RFU, CREB1 / Fold change vs veh, CREB1 / RFU, DNAJC13 / Fold change vs veh, DNAJC13 / RFU, GNAQ / Fold change vs veh, GNAQ / RFU, CDK5R1 / Fold change vs veh, CDK5R1 / RFU, ZRANB3 / Fold change vs veh, ZRANB3 / RFU, CUL4A / Fold change vs veh, CUL4A / RFU, CCNY / Fold change vs veh, CCNY / RFU, UFL1 / Fold change vs veh, UFL1 / RFU, COG3 / Fold change vs veh, COG3 / RFU, DIAPH2 / Fold change vs veh, DIAPH2 / RFU, SKA2 / Fold change vs veh, SKA2 / RFU, AFF3 / Fold change vs veh, AFF3 / RFU, LMF1 / Fold change vs veh, LMF1 / RFU, IPO11 / Fold change vs veh, IPO11 / RFU, DFFB / Fold change vs veh, DFFB / RFU, FOXP1 / Fold change vs veh, FOXP1 / RFU, CARD8 / Fold change vs veh, CARD8 / RFU, STRN3 / Fold change vs veh, STRN3 / RFU, ADK / Fold change vs veh, ADK / RFU, RASSF2 / Fold change vs veh, RASSF2 / RFU, WIPF1 / Fold change vs veh, WIPF1 / RFU, LARP1B / Fold change vs veh, LARP1B / RFU, RASA1 / Fold change vs veh, RASA1 / RFU, RB1 / Fold change vs veh, RB1 / RFU, PPFIA1 / Fold change vs veh, PPFIA1 / RFU, MAT2A / Fold change vs veh, MAT2A / RFU, CCT5 / Fold change vs veh, CCT5 / RFU, WDR92 / Fold change vs veh, WDR92 / RFU, CUX1 / Fold change vs veh, CUX1 / RFU, TTC7A / Fold change vs veh, TTC7A / RFU, TMEM135 / Fold change vs veh, TMEM135 / RFU, DEPTOR / Fold change vs veh, DEPTOR / RFU, CPM / Fold change vs veh, CPM / RFU, DNAJB6 / Fold change vs veh, DNAJB6 / RFU, CACNA2D3 / Fold change vs veh, CACNA2D3 / RFU, DTX4 / Fold change vs veh, DTX4 / RFU, TFCP2 / Fold change vs veh, TFCP2 / RFU, GMCL1 /// GMCL1P1 / Fold change vs veh, GMCL1 /// GMCL1P1 / RFU, AEBP2 / Fold change vs veh, AEBP2 / RFU, SNHG1 /// SNORD22 /// SNORD25 /// SNORD26 /// SNORD27 /// SNORD28 /// SNORD29 /// SNORD31 / Fold change vs veh, SNHG1 /// SNORD22 /// SNORD25 /// SNORD26 /// SNORD27 /// SNORD28 /// SNORD29 /// SNORD31 / Fold change (Aza/veh), C12orf56 (ProbeSet 11735607_a_at) / Fold change (ACY-1035/veh), C12orf56 (ProbeSet 11735607_a_at) / Fold change (Aza/veh), FGFR1OP (ProbeSet 11751329_s_at) / Fold change (ACY-1035/veh), FGFR1OP (ProbeSet 11751329_s_at) / Fold change (Aza/veh), VPS36 (ProbeSet 11739960_a_at) / Fold change (ACY-1035/veh), VPS36 (ProbeSet 11739960_a_at) / RFU SYPL1 (11715823_x_at) / Fold change /veh SYPL1 (11715823_x_at) / RFU IGFBP7 (11715501_s_at) / Fold change /veh IGFBP7 (11715501_s_at) / RFU REEP3 (11722064_at) / Fold change /veh REEP3 (11722064_at) / RFU IGLL1 (11728026_x_at) / Fold change /veh IGLL1 (11728026_x_at): dose or concentration left out as unconfirmed
Settings: gene C12orf56; ACY-1035 vs DMSO; LIST F

Nc1ccc(-c2cccs2)cc1NC(=O)c1ccc2c(c1)cc(C1CC1)n2CCN1CCOCC1 [ACY-1035] was tested, and the “Fold change (ACY-1035/veh), C12orf56 (ProbeSet 11735607_a_at)” value was 0.39.
